Earlier results, collected in US9339478B2, “Pharmaceutical formulation” (RECKITT BENCKISER LLC, priority 2011, dated 2016).

Conditions: per dose, typical

SMILES: COc1ccc2c3c1O[C@H]1[C@@H](O)C=C[C@H]4[C@@H](C2)N(C)CC[C@@]341 [codeine]
- period of therapeutic effect / relief provided by a dose: 2.5 to 3 h
